# “Also recorded” adds a separate entry of the source.
# Assays:
# A549 cells [1] = experiment: Induction of TRE-sensor-DNA (luciferase) in transiently transfected pretest cells, A549; conditions: for induction of pADneo(3TRE)BGluci: 10 ng TPA/ml or 20 μM forskolin, 18 h
# Procedure: (§1) Approximately 1×10^7 cells per transfection were detached from the surface of the culture dish using trypsin and centrifuged for 5 minutes at 1200 rpm at ambient temperature (Heraeus Minifuge), washed once with 5 ml of serum-free medium, centrifuged for 5 minutes at 1200 rpm and suspended in 1 ml of serum-free medium. Then the cells were mixed with 250 μg/ml DEAE-dextrane, 5 μg plasmid DNA and 50 μg/ml chloroquin, incubated for 30 minutes at 37° C., washed once with medium containing no FCS and incubated overnight at 37° C. with 10 ml of fresh serum-containing medium. Then the medium was changed and after 4 hours the cells were induced, either with 10 ng TPA/ml medium or with 20 μM forskolin. […] The cells were lysed by the addition of 100 μl lysing buffer (1% Triton X-100, 25 mM glycylglycine pH 7.8, 15 mM MgSO4, 4 mM EDTA and 1 mM […]), the lysate was centrifuged for 5 minutes and the supernatant was transferred into a fresh test tube. […] The measuring time for light emission was 10 seconds.
# (§2) The cell lines A549, HeLa and COS-7 were transiently transfected as described above by the addition of plasmid pBHluc1.3 and induced by the addition of TPA. Cells which were only transfected but not induced were used as a negative control.
# (§3) The cell lines A549, HeLa and COS-7 were transiently transfected by the addition of plasmid pADneo(3TRE)BGluci and induced by the addition of TPA or forskolin. Once again, cells which were only transfected but not induced were used as a negative control.
# (§4) The cell lines COS-7 and A549 were transiently transfected by the addition of plasmid pADneo(3×TREd16)BGluci, pADneo(3×TREd21)BGluci, pADneo(3×TREd24)BGluci, pADneo(3×TREd34)BGluci, pADneo(6×TREd16)BGluci, pADneo(6×TREd21)BGluci, pADneo(6×TREd24)BGluci or pADneo(6×TREd34)BGluci and induced by the addition of TPA or forskolin.
# COS-7 cells = experiment: Induction of TRE-sensor-DNA (luciferase) in transiently transfected pretest cells, COS-7; conditions: for induction of pADneo(3TRE)BGluci / induction of pBHluc1.3 by TPA or forskolin: 10 ng TPA/ml or 20 μM forskolin, 18 h
# Procedure: as §1, §2, §3, §4
# [2] = target: T1, human dopamine D1-receptor (Homo sapiens, UniProt P21728); experiment: Induction of pBHluc1.3 (TRE) via dopamine-D1-receptor in co-transfected COS-7 cells; format: cell-based; conditions: 10 ng/ml TPA or 1 μM apomorphine, 18 h
# HeLa cells = experiment: Induction of TRE-sensor-DNA (luciferase) in transiently transfected pretest cells, HeLa; conditions: 18 h; for induction of pADneo(3TRE)BGluci / induction of pBHluc1.3 by TPA or forskolin: 10 ng TPA/ml or 20 μM forskolin
# Procedure: as §1, §2, §3
# cell line CHO C6-13 = experiment: Luciferase expression in CRE-pretest cell line CHO C6-13; conditions: for change in luciferase expression/activity: 3 hours treatment, FIG. 33
# Procedure: The transfection by electroporation was carried out as follows: after removal of the medium the cells were detached from the surface by means of a trypsin/PBS solution, suspended in medium and pelleted for 5 minutes at 250×g. The cells were washed in HBS (10 mM HEPES pH 7.4, 150 mM NaCl) and pelleted by centrifuging. The cells were suspended in HBS in a density of 1×10^7 cells/ml. 0.8 ml of cell suspension were mixed with 20 μg of DNA of the plasmid pADneo2-C6-BGL linearised with ScaI and transferred into an electroporation dish. […] After the electroporation the cells were diluted in the medium mentioned above, 20,000 cells per 90 mm culture dish was sown and incubated overnight at 37° C.
# Two batches of each were treated with 20 μM forskolin and incubated for a further 5 hours at 37° C. Then the medium was removed from all the cells and the cells were washed with PBS.
# Cells of the cell line CHO C6-13 were treated for 3 hours with various substances which alter the intracellular concentration of cAMP or IP3 /DAG or simulate a change in concentration, and also treated with receptor-specific agonists which influence the above-mentioned signal transduction mechanisms.
# A549 cells [3] = conditions: Voraberger et al., 1991; cited from earlier work
# [4] = target: human muscarinic M3-receptor (Homo sapiens, UniProt P20309); format: cell-based
# cell line A20 = experiment: Luciferase induction in stable TRE-pretest cell line A20 (A549, pBHluc1.3)
# Procedure: In order to produce a stable (pre-)test cell line for substances which influence the expression of the luciferase gene by direct or receptor-mediated modulation of the IP3 /DAC-signal transduction pathway, A549 cells were simultaneously transfected with the plasmid pBHluc1.3 and the selection plasmid pRSVneo by electroporation as follows: after removal of the medium the cells were detached from the surface by means of a trypsin/PBS solution, suspended in medium and sedimented for 5 minutes at 250×g. […] 0.8 ml of cell suspension were combined with 20 μg of pBHluc1.3 and 2 μg of pRSVneo. Both plasmids had previously been linearised with BamHI.
# (§5) 15-20 days after transfection, individual cell clones were transferred into 96-well microtitre plates and further cultivated. […] Approximately 40,000 cells in each clone were sown, in a procedure repeated 6 times, in 200 μl per well of a light-impervious 96-well microtitre plate coated with tissue culture (Microlite™, Dynatech Laboratories) and incubated overnight at 37° C. Three mixtures were treated with 10 ng TPA/ml and incubated for a further 8 hours. Then the medium was removed and the cells were washed twice with PBS.
# (§6) The pretest cell line A20 was transfected, as described under a), by electroporation with the plasmid pAHyg-NK2, which had previously been linearised with BglII. From the day after transfection onwards, the cells were grown in selection medium, as used for the cell line A20 and additionally enriched with 150 μg/ml hygromycin B (Sigma). Individual clones were tested for inducibility of the luciferase activity as described under a).
# [5] = target: T2, human neurokinin 2-receptor (Homo sapiens, UniProt P21452); experiment: Luciferase activity in NK2-test cell line A20/NK2-122
# T2 sequence (P21452 1-398): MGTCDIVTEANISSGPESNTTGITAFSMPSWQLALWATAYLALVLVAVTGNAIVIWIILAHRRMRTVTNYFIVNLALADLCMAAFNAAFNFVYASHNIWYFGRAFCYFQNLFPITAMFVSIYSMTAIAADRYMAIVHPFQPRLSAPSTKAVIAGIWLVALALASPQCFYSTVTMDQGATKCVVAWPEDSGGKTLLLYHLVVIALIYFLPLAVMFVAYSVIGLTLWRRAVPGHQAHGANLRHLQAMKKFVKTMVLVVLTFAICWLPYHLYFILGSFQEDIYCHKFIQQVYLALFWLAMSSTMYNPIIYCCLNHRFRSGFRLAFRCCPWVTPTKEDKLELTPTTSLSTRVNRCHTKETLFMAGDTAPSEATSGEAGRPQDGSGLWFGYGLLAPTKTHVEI
# Procedure: as §5
# This Example illustrates the preparation of a test cell line for the human neurokinin 2 (NK2)-receptor which is coupled to the phospholipase C-signal transduction pathway. This test cell line makes it possible, by measurement of the luciferase activity, to identify substances which modulate the intracellular IP3 /DAG concentrations, depending on the receptor.
# as §6
# [6] = target: T1, human dopamine D1-receptor; experiment: Induction of pADneo2-C6-BGL (CRE) via dopamine-D1-receptor in co-transfected COS-7 cells; conditions: COS-7; 20 μM forskolin or 1 μM apomorphine, 18 h
# CHO C12-32 = experiment: Luciferase inducibility in CRE-pretest cell clone C12-32; format: cell-based, Chinese hamster; conditions: 20 μM forskolin, 5 hours
# Procedure: (This plasmid differs from the pADneo2-C6-BGL described in Example 1) in that the section containing the 6 CRE-elements is duplicated and the β-globin promotor is replaced by the TK-promotor (see Example 1 b)). In order to do this the SalI-HindIII-β-globin-promotor-fragment was replaced by a similarly cut fragment containing the TK-promotor (McKnight, 1980)).
# The transfection and testing of the cell clones were carried out as in Example 7 a).
# human 5HT2-receptor = human 5HT2-receptor (Homo sapiens, UniProt P28223); experiment: Induction of pADneo2-C6-BGL (CRE) via 5-HT2-receptor in co-transfected COS-7 cells; format: cell-based; conditions: 20 μM forskolin or 10 μ α-methylserotonin-maleate
# Procedure: Induction was carried out with i) 20 μM forskolin (Sigma P8139), ii) 10 μα-methylserotonin-maleate (RBI M-110), and iii) 10 μα-methylserotonin-maleate and 10 μM ketanserin-tartrate (RBI S-006). […] It follows, from the above results, that, depending on 5-HT2 -receptors, only regulation elements which respond to IP3 /DAG (TRE), but not regulation elements which respond to cAMP (CRE) are selectively activated.
structure (smiles),measurement,setting,value
"CCCCCCCCCCCCCC(=O)O[C@@H]1[C@@H](C)[C@@]2(O)[C@@H](C=C(CO)C[C@]3(O)C(=O)C(C)=C[C@@H]23)[C@@H]2C(C)(C)[C@]12OC(C)=O [TPA, phorbol-12-myristat-13-acetate]",induction of pADneo(6×TREdx)BGluci depending on spacing of TRE-elements,"A549 cells [1]; A549, 10 ng TPA/ml",higher when the spacing of the TRE-elements is smaller
same,"induction of pADneo(nTREdx)BGluci, 6 versus 3 TRE-elements","A549 cells [1]; A549, 10 ng TPA/ml",the induction with TPA for the constructions with 6 TRE-elements is greater than for the constructions with 3 TRE-elements
same,induction of pADneo(3TRE)BGluci,A549 cells [1]; A549,can be induced in the tested cells by TPA
same,fold induction at 0.01 µg/mL,"A549 cells [1]; Homo sapiens, A549, 18 h, read-out: induction of pBHluc1.3 (luciferase)",> 10
same,induction of pADneo(6×TREdx)BGluci depending on spacing of TRE-elements,"COS-7 cells; COS-7, 10 ng TPA/ml",higher when the spacing of the TRE-elements is smaller
same,"induction of pADneo(nTREdx)BGluci, 6 versus 3 TRE-elements","COS-7 cells; COS-7, 10 ng TPA/ml",the induction with TPA for the constructions with 6 TRE-elements is greater than for the constructions with 3 TRE-elements
same,induction of pADneo(3TRE)BGluci,COS-7 cells; COS-7,can be induced in the tested cells by TPA
same,induction of pBHluc1.3 by TPA or forskolin,COS-7 cells; COS-7,could also be induced by TPA
same,fold induction at 0.01 µg/mL,"COS-7 cells; Primates, COS-7, 18 h, read-out: induction of pBHluc1.3 (luciferase)",> 10
same,induction of luciferase expression (TRE),[2],induced by TPA
same,induction of pADneo(3TRE)BGluci,HeLa cells,can be induced in the tested cells by TPA
same,induction of pBHluc1.3 by TPA or forskolin,HeLa cells,could also be induced by TPA
same,fold induction at 0.01 µg/mL,"HeLa cells; Homo sapiens, read-out: induction of pBHluc1.3 (luciferase)",> 10
same,change in luciferase expression/activity,cell line CHO C6-13,did not bring about any significant change in the luciferase activity
same,induction of 1.3 kb ICAM-1 fragment / pBHluc1.3,A549 cells [3],can be induced by TPA
same,induction of luciferase expression,[4],induced both by TPA and by carbachol
same,maximum induction of luciferase activity by TPA,"cell line A20; A20, depending on the dose",≤ 18 times
same,fold induction at 0.01 µg/mL,"cell line A20; Homo sapiens, A549, 8 h, read-out: inducibility of luciferase activity, clone A20",15 to 20
same,maximum induction of luciferase activity by TPA,"[5]; A20/NK2-122, depending on the dose",≤ 18 times
C=C[C@@]1(C)CC(=O)[C@]2(O)[C@@]3(C)[C@@H](O)CCC(C)(C)[C@@H]3[C@H](O)[C@H](OC(C)=O)[C@@]2(C)O1 [forskolin],induction of pADneo(3TRE)BGluci,A549 cells [1]; A549,not by forskolin
same,induction of pADneo(nTREdx)BGluci by forskolin,"A549 cells [1]; A549, 20 μM forskolin",none of the constructions can be induced with forskolin
same,induction of pADneo(3TRE)BGluci,COS-7 cells; COS-7,not by forskolin
same,induction of pBHluc1.3 by TPA or forskolin,COS-7 cells; COS-7,not by forskolin
same,induction of pADneo(nTREdx)BGluci by forskolin,"COS-7 cells; COS-7, 20 μM forskolin",none of the constructions can be induced with forskolin
same,induction of pADneo(3TRE)BGluci,HeLa cells,not by forskolin
same,induction of pBHluc1.3 by TPA or forskolin,HeLa cells,not by forskolin
same,"inducibility of luciferase by forskolin, clone C6-13","cell line CHO C6-13; 20 μM forskolin, 5 hours",very high inducibility
same,change in luciferase expression/activity,cell line CHO C6-13,increased
same,luciferase induction at concentrations higher than 20 μM (attributed to toxic effects or excessively high cAMP level),cell line CHO C6-13; > 20 μM forskolin,drop in luciferase induction at even higher concentrations
same,EC100,"cell line CHO C6-13; Cricetulus griseus, read-out: concentration of maximum induction of the luciferase reporter gene",20 µM
same,time up to which induction does not change,cell line CHO C6-13; after forskolin stimulation,4 h
same,time after stimulation at which increased luciferase activity can be detected,"cell line CHO C6-13; forskolin, FIG. 35A",60 min
same,time to total induction of luciferase expression,"cell line CHO C6-13; forskolin, FIG. 35A",2.5 h
same,dependency of ED50 levels on duration of treatment,"cell line CHO C6-13; forskolin, FIG. 35B",virtually unaffected
same,induction of luciferase expression (CRE),[6],induced by forskolin and by apomorphine
same,"inducibility of luciferase by forskolin, clone C12-32",CHO C12-32,very high inducibility
same,induction of 1.3 kb ICAM-1 fragment / pBHluc1.3,A549 cells [3],cannot be activated by forskolin; also recorded: cannot be induced by forskolin
same,induction of luciferase activity by forskolin,cell line A20; A20,did not result in any induction of luciferase activity
same,induction of luciferase activity by forskolin,[5]; A20/NK2-122,did not result in any induction of luciferase activity
same,induction of luciferase expression (CRE),human 5HT2-receptor,induced by forskolin

# Source: patent publication US5854004A, “Process for screening substances capable of modulating a receptor-dependent cellular signal transmission path” (Boehringer Ingleheim GmbH, priority 1991, dated 1998)
